From ChEMBL document CHEMBL1201862, “PubChem BioAssay data set” (2004)
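Values below derive from 48-hour exposures of cells grown in 96-well plates, with endpoints linearly interpolated between the two concentrations bracketing the appropriate inhibition level. GI50: concentration for 50% inhibition of growth.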 Active and inactive are the calls of the source. Rule as the data show it: active = GI50 up to about 1.1 µM and inactive = higher.

Assays:
Assay in all cases: growth of human tumour cells (NCI), 48 h
[1] = test system: COLO 205
[2] = test system: MDA-N
[3] = test system: UACC-257
[4] = test system: HT-29
[5] = test system: KM12
[6] = test system: NCI-H460
[7] = test system: PC-3
[8] = test system: MOLT-4
[9] = test system: A549
[10] = test system: SF-539
[11] = test system: SK-MEL-28
[12] = test system: CCRF-CEM
[13] = test system: IGROV-1
[14] = test system: SR
[15] = test system: CAKI-1
[16] = test system: BT-549
[17] = test system: SK-MEL-2
[18] = test system: SN12C
[19] = test system: Hs-578T
[20] = test system: T47D

Row | SMILES | GI50 [1] | GI50 [2] | GI50 [3] | GI50 [4] | GI50 [5] | GI50 [6] | GI50 [7] | GI50 [8] | GI50 [9] | GI50 [10] | GI50 [11] | GI50 [12] | GI50 [13] | GI50 [14] | GI50 [15] | GI50 [16] | GI50 [17] | GI50 [18] | GI50 [19] | GI50 [20]
1 | N/N=C1\C(OC(=O)Nc2cccc(Cl)c2)=Nc2ccccc21 | 6.95 µM (inactive) | 3.12 µM (inactive) | 13.7 µM (inactive) | 6.59 µM (inactive) | 4.58 µM (inactive) | 6.9 µM (inactive) | 4.98 µM (inactive) | 6.49 µM (inactive) | 5.92 µM (inactive) | 17.1 µM (inactive) | 14.8 µM (inactive) | 5.93 µM (inactive) | 8.15 µM (inactive) | 11.4 µM (inactive) | 4.47 µM (inactive) | 7.96 µM (inactive) | 10.3 µM (inactive) | 4.95 µM (inactive) | 16.1 µM (inactive) | 2.45 µM (inactive)
2 | c1ccc(/C(=N\Nc2nc3ccccc3s2)c2ccccn2)cc1 | 1.37 µM (inactive) | 4.94 µM (inactive) | 2.92 µM (inactive) | 1.87 µM (inactive) | 3.56 µM (inactive) | 1.97 µM (inactive) | 5.7 µM (inactive) | 0.346 µM (active) | 3.09 µM (inactive) | 7 µM (inactive) | 8.13 µM (inactive) | 0.0603 µM (active) | 4.69 µM (inactive) | 0.891 µM (active) | 2.72 µM (inactive) | 18.8 µM (inactive) | 4.08 µM (inactive) | 2.79 µM (inactive) | 13.2 µM (inactive) | < 0.0248 µM (active)
3 | O=C1NC(=O)C(F)(n2cc(F)c(=O)[nH]c2=O)C(O)N1 (stereo not given) | > 10 µM (inactive) | > 10 µM (inactive) | > 10 µM (inactive) | > 10 µM (inactive) | > 10 µM (inactive) | > 10 µM (inactive) | > 10 µM (inactive) | > 10 µM (inactive) | > 10 µM (inactive) | > 10 µM (inactive) | > 10 µM (inactive) | > 10 µM (inactive) | > 10 µM (inactive) | > 10 µM (inactive) | > 10 µM (inactive) | > 10 µM (inactive) | > 10 µM (inactive) | > 10 µM (inactive) | > 10 µM (inactive) | > 10 µM (inactive)
4 | CC(C)(C)OC(=O)NCCCNC1(c2cc3ccccc3s2)CCCCC1 | 12.3 µM (inactive) | 15.1 µM (inactive) | 15.8 µM (inactive) | 3.15 µM (inactive) | 17 µM (inactive) | 14.3 µM (inactive) | 18.8 µM (inactive) | 12.5 µM (inactive) | 12.6 µM (inactive) | 18.4 µM (inactive) | 14.9 µM (inactive) | 8.22 µM (inactive) | 16.7 µM (inactive) | 10.2 µM (inactive) | 13.6 µM (inactive) | 13.6 µM (inactive) | 17.5 µM (inactive) | 15.3 µM (inactive) | 19.4 µM (inactive) | 16.7 µM (inactive)
5 | Cc1ccc(C(=O)OC(C)C)cc1/N=N/N(C)C | > 100 µM (inactive) | > 100 µM (inactive) | 27.1 µM (inactive) | > 100 µM (inactive) | > 84.5 µM (inactive) | > 100 µM (inactive) | 99.1 µM (inactive) | > 100 µM (inactive) | > 100 µM (inactive) | > 100 µM (inactive) | > 100 µM (inactive) | 75.2 µM (inactive) | > 100 µM (inactive) | > 100 µM (inactive) | 83 µM (inactive) | > 100 µM (inactive) | > 100 µM (inactive) | 97.5 µM (inactive) | > 100 µM (inactive) | 44.5 µM (inactive)
6 | CO[C@@H]1[C@H](OC(=O)NC(=O)CCl)CC[C@]2(CO2)[C@H]1[C@@]1(C)O[C@@H]1CC=C(C)C [O-CHLOROACETYLCARBAMOYLFUMAGILLOL] | 14.2 µM (inactive) | 11.4 µM (inactive) | 11 µM (inactive) | 5.66 µM (inactive) | 11.5 µM (inactive) | 2.04 µM (inactive) | 10.7 µM (inactive) | 6.56 µM (inactive) | 7.23 µM (inactive) | 10.6 µM (inactive) | 12.8 µM (inactive) | 0.9 µM (active) | 12.2 µM (inactive) | 5.64 µM (inactive) | 11 µM (inactive) | 14.6 µM (inactive) | 13.6 µM (inactive) | 13.7 µM (inactive) | 19.9 µM (inactive) | 12.6 µM (inactive)
7 | O=C([O-])C(O)C(O)C(=O)O.[K+] (stereo not given) [POTASSIUM HYDROGENTARTRATE] | > 100 µM (inactive) | > 100 µM (inactive) | > 100 µM (inactive) | > 100 µM (inactive) | > 100 µM (inactive) | > 100 µM (inactive) | > 100 µM (inactive) | > 100 µM (inactive) | > 100 µM (inactive) | > 100 µM (inactive) | > 100 µM (inactive) | > 100 µM (inactive) | > 100 µM (inactive) | > 100 µM (inactive) | > 100 µM (inactive) | > 100 µM (inactive) | > 100 µM (inactive) | > 100 µM (inactive) | > 100 µM (inactive) | > 100 µM (inactive)
